Measured values published in patent publication US7135466B2 (Kirin Beer Kabushiki Kaisha, priority 1999, dated 2006).
pIC50: −log10 of the molar value.

What follows are compounds tested against T1, c-kit (Homo sapiens, UniProt P10721) (assay: Inhibitory activity against c-kit autophosphorylation (MO7e cells, h-SCF)). Details: MO7e cells, 50 ng/ml h-SCF; read-out: c-kit IC50.
T1 construct: MO7e (human megakaryocytic leukemia cell line) which had been arrested for 20 hr; endogenous in cells; host or cells: MO7e human megakaryocytic leukemia cell line
T1 sequence (P10721 26-976): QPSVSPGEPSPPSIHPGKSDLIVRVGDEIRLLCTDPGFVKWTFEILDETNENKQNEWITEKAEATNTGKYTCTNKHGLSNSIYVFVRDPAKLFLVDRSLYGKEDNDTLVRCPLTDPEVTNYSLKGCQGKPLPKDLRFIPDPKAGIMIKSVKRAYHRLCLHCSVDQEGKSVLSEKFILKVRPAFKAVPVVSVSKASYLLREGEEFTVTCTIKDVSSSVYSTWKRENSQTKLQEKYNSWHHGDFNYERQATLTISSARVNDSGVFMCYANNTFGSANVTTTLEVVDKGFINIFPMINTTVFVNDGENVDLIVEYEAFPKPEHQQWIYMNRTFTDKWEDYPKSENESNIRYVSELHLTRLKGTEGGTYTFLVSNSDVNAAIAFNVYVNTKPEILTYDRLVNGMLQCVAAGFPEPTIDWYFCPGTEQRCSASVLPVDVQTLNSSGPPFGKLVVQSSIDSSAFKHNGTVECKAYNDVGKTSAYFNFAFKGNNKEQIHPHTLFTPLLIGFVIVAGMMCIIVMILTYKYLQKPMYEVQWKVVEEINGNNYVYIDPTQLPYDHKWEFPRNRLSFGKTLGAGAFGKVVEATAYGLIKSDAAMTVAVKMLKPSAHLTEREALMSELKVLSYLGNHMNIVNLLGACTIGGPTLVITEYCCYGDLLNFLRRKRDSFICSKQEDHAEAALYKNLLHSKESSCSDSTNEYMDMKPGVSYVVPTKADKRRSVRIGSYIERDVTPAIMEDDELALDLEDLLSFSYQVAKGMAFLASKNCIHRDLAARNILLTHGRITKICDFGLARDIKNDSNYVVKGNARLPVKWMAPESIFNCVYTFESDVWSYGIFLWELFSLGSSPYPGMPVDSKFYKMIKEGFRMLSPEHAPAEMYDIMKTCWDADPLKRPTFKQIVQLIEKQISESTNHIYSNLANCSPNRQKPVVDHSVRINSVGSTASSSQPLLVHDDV
Format: cell-based
Description: Inhibitory Activity Against c-kit Autophosphorylation
MO7e (human megakaryocytic leukemia cell line) which had been arrested for 20 hr was seeded into 96 well plates at an amount of 2×10^5 per well. A solution of a test compound in DMSO was added, and a reaction was then allowed to proceed for one hr. Thereafter, the cells were stimulated by 50 ng/ml of h-SCF for 5 min, followed by replacement with lysate buffer to solubilize the cells.
Next, the solubilized cell sap was transferred to a 96-well plate with an anti-phosphotyrosine antibody (PY-20) previously immobilized thereon, and a reaction was allowed to proceed. Thereafter, the cells were reacted with an anti-c-kit antibody (c-19, Santa Cruz) as a primary antibody and were labelled with GAR (anti-rabbit IgG, horseradish peroxidase, Amersham) as a secondary antibody. Color development was then carried out in a peroxidase color development kit (Sumitomo Bakelite Co., Ltd.), and the absorbance was measured at a wavelength of 450 nm.

Row | pIC50 | Compound
1 | 6.76 | COc1cc2nccc(Oc3ccc(NC(=O)NNc4ccccc4)c(F)c3)c2cc1OC [Example 612, N-{4-[(6,7-Dimethoxy-4-quinolyl)oxy]-2-fluorophenyl}-N′-(phenylamino)urea]
2 | 6.57 | COc1cc(Oc2ccnc3cc(OC)c(OC)cc23)ccc1NC(=O)NCCN1CCCCC1 [Example 681, N-{4-[(6,7-Dimethoxy-4-quinolyl)oxy]-2-methoxyphenyl}-N′-(2-piperidinoethyl)urea]
3 | 6.52 | COc1cc2nccc(Oc3ccc(NC(=S)NC(=O)Cc4ccccc4F)cc3)c2cc1OC [Example 729, N-{4-[(6,7-Dimethoxy-4-quinolyl)oxy]phenyl}-N′-[2-(2-fluorophenyl)acetyl]thiourea]
4 | 6.41 | COc1ccccc1NC(=O)COc1ccc(Oc2ccnc3cc(OC)c(OC)cc23)cc1 [Example 776, N1-(2-Methoxyphenyl)-2-{4-[(6,7-dimethoxy-4-quinolyl)oxy]phenoxy}acetamide]
5 | 7.08 | COc1cccc(NC(=O)COc2ccc(Oc3ccnc4cc(OC)c(OC)cc34)cc2)c1 [Example 778, N1-(3-Methoxyphenyl)-2-{4-[(6,7-dimethoxy-4-quinolyl)oxy]phenoxy}acetamide]
6 | 7.32 | COc1ccc(NC(=O)COc2ccc(Oc3ccnc4cc(OC)c(OC)cc34)cc2)cc1 [Example 780, N1-(4-Methoxyphenyl)-2-{4-[(6,7-dimethoxy-4-quinolyl)oxy]phenoxy}acetamide]
7 | 6.87 | COc1ccc(NCCOc2ccc(Oc3ccnc4cc(OC)c(OC)cc34)cc2)cc1 [Example 781, N-(2-{4-[(6,7-Dimethoxy-4-quinolyl)oxy]phenoxy}ethyl)-N-(4-methoxyphenyl)amine]
8 | 6.44 | COc1cc2nccc(Oc3ccc(OCC(=O)Nc4ccccc4C)cc3)c2cc1OC [Example 782, N1-(2-Methylphenyl)-2-{4-[(6,7-dimethoxy-4-quinolyl)oxy]phenoxy}acetamide]
9 | 6.35 | COc1cc2nccc(Oc3ccc(OCCNc4ccccc4C)cc3)c2cc1OC [Example 783, N-(2-{4-[(6,7-Dimethoxy-4-quinolyl)oxy]phenoxy}ethyl)-N-(2-methylphenyl)amine]
10 | 7.10 | COc1cc2nccc(Oc3ccc(OCC(=O)Nc4cccc(C)c4)cc3)c2cc1OC [Example 784, N1-(3-Methylphenyl)-2-{4-[(6,7-dimethoxy-4-quinolyl)oxy]phenoxy}acetamide]
11 | 7.15 | COc1cc2nccc(Oc3ccc(OCCNc4cccc(C)c4)cc3)c2cc1OC [Example 785, N-(2-{4-[(6,7-Dimethoxy-4-quinolyl)oxy]phenoxy}ethyl)-N-(3-methylphenyl)amine]

Same assay, conditions: MO7e cells, h-SCF 50 ng/ml; read-out: c-kit IC50

Row | pIC50 | Compound
12 | 6.12 | 4-Methylbenzyl {2-chloro-4-[(6,7-dimethoxy-4-quinazolinyl)oxy]anilino}methanethioate [Example 111]
13 | 6.96 | 4-Methylbenzyl {4-[(6,7-dimethoxy-4-quinazolinyl)oxy]anilino}methanethioate [Example 110]
14 | 6.43 | COc1cc2nccc(Oc3ccc(NC(=O)SCc4ccc(C)cc4)cc3)c2cc1OC [Example 107, 4-Methylbenzyl {4-[(6,7-dimethoxy-4-quinolyl)oxy]anilino}methanethioate]
15 | 6.74 | COc1cc2nccc(Oc3ccc(NC(=O)SCc4ccc(C)cc4)c(C)c3C)c2cc1OC [Example 108, 4-Methylbenzyl {4-[(6,7-dimethoxy-4-quinolyl)oxy]-2,3-dimethylanilino}methanethioate]
16 | 6.39 | COc1cc2nccc(Oc3cc(C)c(NC(=O)SCc4ccc(C)cc4)cc3C)c2cc1OC [Example 109, 4-Methylbenzyl {4-[(6,7-dimethoxy-4-quinolyl)oxy]-2,5-dimethylanilino}methanethioate]
17 | 6.91 | COc1cc2nccc(Oc3cc(C)c(NC(=O)OCc4ccccc4)cc3C)c2cc1OC [Example 218, Benzyl N-{4-[(6,7-dimethoxy-4-quinolyl)oxy]-2,5-dimethylphenyl}carbamate]
18 | > 7.52 | COc1cc2nccc(Oc3ccc(NC(=O)OCc4ccccc4)c(C)c3C)c2cc1OC [Example 219, Benzyl N-{4-[(6,7-dimethoxy-4-quinolyl)oxy]-2,3-dimethylphenyl}carbamate]
19 | 7.11 | COc1cc2ncnc(Oc3ccc(NC(=O)OCc4ccccc4)cc3)c2cc1OC [Example 220, Benzyl N-{4-[(6,7-dimethoxy-4-quinazolinyl)oxy]phenyl}carbamate]
20 | 6.96 | COc1cc2nccc(Oc3cc(C)c(NC(=O)OC4CCCCC4)cc3C)c2cc1OC [Example 221, Cyclohexyl N-{4-[(6,7-dimethoxy-4-quinolyl)oxy]-2,5-dimethylphenyl}carbamate]
21 | 7.00 | COc1cc2nccc(Oc3ccc(NC(=O)OC4CCCCC4)c(C)c3C)c2cc1OC [Example 222, Cyclohexyl N-{4-[(6,7-dimethoxy-4-quinolyl)oxy]-2,3-dimethylphenyl}carbamate]
22 | 6.34 | COc1cc2ncnc(Oc3ccc(NC(=O)OCc4ccccc4)c(Cl)c3)c2cc1OC [Example 225, Benzyl N-{2-chloro-4-[(6,7-dimethoxy-4-quinazolinyl)oxy]phenyl}carbamate]
23 | 7.14 | COc1cccc(COC(=O)Nc2ccc(Oc3ccnc4cc(OC)c(OC)cc34)cc2)c1 [Example 226, 3-Methoxybenzyl N-{4-[(6,7-dimethoxy-4-quinolyl)oxy]phenyl}carbamate]
24 | 6.71 | COc1cc2nccc(Oc3ccc(NC(=O)OCc4ccccc4Cl)cc3)c2cc1OC [Example 227, 2-Chlorobenzyl N-{4-[(6,7-dimethoxy-4-quinolyl)oxy]phenyl}carbamate]
25 | 7.15 | COc1cc2nccc(Oc3ccc(NC(=O)OCc4cccc(Cl)c4)cc3)c2cc1OC [Example 228, 3-Chlorobenzyl N-{4-[(6,7-dimethoxy-4-quinolyl)oxy]phenyl}carbamate]
26 | 7.33 | COc1cc2nccc(Oc3ccc(NC(=O)OCc4ccc(Cl)cc4)cc3)c2cc1OC [Example 229, 4-Chlorobenzyl N-{4-[(6,7-dimethoxy-4-quinolyl)oxy]phenyl}carbamate]
27 | 7.47 | C=CCCCOC(=O)Nc1ccc(Oc2ccnc3cc(OC)c(OC)cc23)cc1 [Example 266, 4-Pentenyl N-{4-[(6,7-dimethoxy-4-quinolyl)oxy]phenyl}carbamate]
28 | 7.46 | C=CCCCOC(=O)Nc1cc(C)c(Oc2ccnc3cc(OC)c(OC)cc23)cc1C [Example 267, 4-Pentenyl N-{4-[(6,7-dimethoxy-4-quinolyl)oxy]-2,5-dimethylphenyl}carbamate]
29 | 7.47 | C=CCCCOC(=O)Nc1ccc(Oc2ccnc3cc(OC)c(OC)cc23)c(C)c1C [Example 268, 4-Pentenyl N-{4-[(6,7-dimethoxy-4-quinolyl)oxy]-2,3-dimethylphenyl}carbamate]
30 | 6.91 | CCCCOC(=O)Nc1ccc(Oc2ncnc3cc(OC)c(OC)cc23)cc1Cl [Example 345, Butyl N-{2-chloro-4-[(6,7-dimethoxy-4-quinazolinyl)oxy]phenyl}carbamate]

Row | Compound | pIC50
31 | COc1cc2nccc(Oc3ccc(NC(=O)Oc4ccccc4)cc3)c2cc1OC [Example 216, Phenyl N-{4-[(6,7-dimethoxy-4-quinolyl)oxy]phenyl}carbamate] | 7.72
32 | COc1cc2nccc(Oc3ccc(NC(=O)Oc4ccccc4)c(C)c3C)c2cc1OC [Example 217, Phenyl N-{4-[(6,7-dimethoxy-4-quinolyl)oxy]-2,3-dimethylphenyl}carbamate] | 7.41
33 | COc1cc2nccc(Oc3cc(C)c(NC(=O)Oc4ccccc4)cc3C)c2cc1OC [Example 224, Phenyl N-{4-[(6,7-dimethoxy-4-quinolyl)oxy]-2,5-dimethylphenyl}carbamate] | 6.83

Same assay, conditions: Mo7e, figure in parentheses in −( ); at 1000 nM

Row | inhibition at 1 µM [%] | Compound
34 | 14 | CCCCC(CCCC)OC(=O)Nc1ccc(Oc2ncnc3cc(OC)c(OC)cc23)cc1Cl [Example 372, 1-Butylpentyl N-{2-chloro-4-[(6,7-dimethoxy-4-quinazolinyl)oxy]phenyl}carbamate]

Same assay, conditions: Mo7e, figure within parentheses in −( ) or >1000( ); at 1000 nM

Row | inhibition at 1 µM [%] | Compound
35 | 23 | C#CCC(CC)OC(=O)Nc1ccc(Oc2ncnc3cc(OC)c(OC)cc23)cc1OC (stereo not shown) [Example 502, 1-Ethyl-3-butynyl N-{4-[(6,7-dimethoxy-4-quinazolinyl)oxy]-2-methoxyphenyl}carbamate]
36 | 28 | CCCCC(CCCC)OC(=O)Nc1ccc(Oc2ncnc3cc(OC)c(OC)cc23)cc1[N+](=O)[O-] [Example 508, 1-Butylpentyl N-{4-[(6,7-dimethoxy-4-quinazolinyl)oxy]-2-nitrophenyl}carbamate]
37 | 31 | CCN(CC)CCCNC(=S)Nc1ccc(Oc2ncnc3cc(OC)c(OC)cc23)cc1 [Example 531, N-{4-[(6,7-Dimethoxy-4-quinazolinyl)oxy]phenyl}-N′-(3-diethylaminopropyl)thiourea]
38 | 7 | COc1cc2ncnc(Oc3ccc(NC(=S)NCCCN4CCN(C)CC4)cc3)c2cc1OC [Example 536]
39 | 29 | COc1cc2nccc(Oc3ccc(NC(=O)NN4CCCCC4)c(F)c3)c2cc1OC [Example 613, N-{4-[(6,7-Dimethoxy-4-quinolyl)oxy]-2-fluorophenyl}-N′-(1-piperidinyl)urea]
40 | 30 | COc1cc2ncnc(Oc3ccc(NC(=O)NCCN4CCCC4)cc3)c2cc1OC [Example 621, N-{4-[(6,7-Dimethoxy-4-quinazolinyl)oxy]phenyl}-N′-(2-tetrahydro-1H-1-pyrrolylethyl)urea]
